Results taken from patent US20230085307A1, “PYRIDAZINONE COMPOUND AND HERBICIDE” (NISSAN CHEMICAL CORPORATION, priority 2019, published 2023).

What was measured:
windgrass [1] = assay: Test Example 5: herbicidal effect by foliage application, plastic box (Table 20, symbol L); format: in vivo, windgrass (Apera spica-venti); conditions: foliage application
Outline: (§1)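 Sow seeds spot-wise in sterilized diluvial soil; cover with ~1.5 cm soil. Grow 14 days in greenhouse, 25° C. to 30° C. Spray foliage with emulsion diluted to predetermined amount. Rate effect after 3 weeks.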

oval-leafed pondweed = assay: Test Example 1: herbicidal activity, application before weed generation under submerged conditions (Table 16, symbol C); format: in vivo, oval-leafed pondweed (Monochoria vaginalis)
Outline: (§2)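 Alluvial soil was flooded to 4 cm depth, weed seeds were sown mixed and 2.5-leaf rice seedlings were transplanted. On sowing day, the compound's emulsion, diluted in water to a set dose, was applied to the water surface. Plants grew at 25–30 °C and were scored 0–5 after three weeks.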

redroot pigweed [2] = assay: Test Example 4: herbicidal effect by soil treatment (Table 19, symbol N); format: in vivo, redroot pigweed (Amaranthus retroflexus)
Outline: (§3)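 Applied as a water-diluted emulsion, the compound was sprayed onto soil covering newly sown seeds. Evaluation came three weeks after application, in a greenhouse held at 25° C. to 30° C.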

rice flat sedge = assay: Test Example 3: herbicidal effect by foliage application, Wagner pot (Table 18, symbol E); format: in vivo, rice flat sedge (Cyperus iria)
Outline: (§4)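 Plants were sown in alluvial soil held under 0.1–0.5 cm standing water and grown 14 days in a greenhouse at 25–30 °C. An emulsifiable formulation, water-diluted to the set dose, was then sprayed onto the foliage, and effects were scored three weeks later using previously defined criteria.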

windgrass [3] = assay: Test Example 4: herbicidal effect by soil treatment (Table 19, symbol L); format: in vivo, windgrass (Apera spica-venti)
Outline: as §3

velvetleaf [4] = assay: Test Example 5: herbicidal effect by foliage application, plastic box (Table 20, symbol M); format: in vivo, velvetleaf (Abutilon theophrasti); conditions: foliage application
Outline: as §1

Italian ryegrass [5] = assay: Test Example 4: herbicidal effect by soil treatment (Table 19, symbol K); format: in vivo, Italian ryegrass (Lolium multiflorum)
Outline: as §3

barnyard grass [6] = assay: Test Example 4: herbicidal effect by soil treatment (Table 19, symbol H); format: in vivo, barnyard grass (Echinochloa crus-galli)
Outline: as §3

southern crabgrass [7] = assay: Test Example 4: herbicidal effect by soil treatment (Table 19, symbol F); format: in vivo, southern crabgrass (Digitaria ciliaris)
Outline: as §3

redroot pigweed [8] = assay: Test Example 5: herbicidal effect by foliage application, plastic box (Table 20, symbol N); format: in vivo, redroot pigweed (Amaranthus retroflexus); conditions: foliage application
Outline: as §1

chickweed [9] = assay: Test Example 5: herbicidal effect by foliage application, plastic box (Table 20, symbol P); format: in vivo, common chickweed (Stellaria media); conditions: foliage application
Outline: as §1

green foxtail [10] = assay: Test Example 4: herbicidal effect by soil treatment (Table 19, symbol G); format: in vivo, green foxtail (Setaria viridis)
Outline: as §3

wild oat [11] = assay: Test Example 4: herbicidal effect by soil treatment (Table 19, symbol I); format: in vivo, wild oat (Avena fatua)
Outline: as §3

lambsquarters [12] = assay: Test Example 4: herbicidal effect by soil treatment (Table 19, symbol O); format: in vivo, lambsquarters (Chenopodium album)
Outline: as §3

velvetleaf [13] = assay: Test Example 4: herbicidal effect by soil treatment (Table 19, symbol M); format: in vivo, velvetleaf (Abutilon theophrasti)
Outline: as §3

green foxtail [14] = assay: Test Example 5: herbicidal effect by foliage application, plastic box (Table 20, symbol G); format: in vivo, green foxtail (Setaria viridis); conditions: foliage application
Outline: as §1

blackgrass [15] = assay: Test Example 5: herbicidal effect by foliage application, plastic box (Table 20, symbol J); format: in vivo, blackgrass (Alopecurus myosuroides); conditions: foliage application
Outline: as §1

barnyard grass [16] = assay: Test Example 3: herbicidal effect by foliage application, Wagner pot (Table 18, symbol H); format: in vivo, barnyard grass (Echinochloa crus-galli)
Outline: as §4

late watergrass = assay: Test Example 1: herbicidal activity, application before weed generation under submerged conditions (Table 16, symbol A); format: in vivo, late watergrass (Echinochloa oryzicola)
Outline: as §2

barnyard grass [17] = assay: Test Example 5: herbicidal effect by foliage application, plastic box (Table 20, symbol H); format: in vivo, barnyard grass (Echinochloa crus-galli); conditions: foliage application
Outline: as §1

blackgrass [18] = assay: Test Example 4: herbicidal effect by soil treatment (Table 19, symbol J); format: in vivo, blackgrass (Alopecurus myosuroides)
Outline: as §3

lambsquarters [19] = assay: Test Example 5: herbicidal effect by foliage application, plastic box (Table 20, symbol O); format: in vivo, lambsquarters (Chenopodium album); conditions: foliage application
Outline: as §1

chickweed [20] = assay: Test Example 4: herbicidal effect by soil treatment (Table 19, symbol P); format: in vivo, common chickweed (Stellaria media)
Outline: as §3

wild oat [21] = assay: Test Example 5: herbicidal effect by foliage application, plastic box (Table 20, symbol I); format: in vivo, wild oat (Avena fatua); conditions: foliage application
Outline: as §1

Italian ryegrass [22] = assay: Test Example 5: herbicidal effect by foliage application, plastic box (Table 20, symbol K); format: in vivo, Italian ryegrass (Lolium multiflorum); conditions: foliage application
Outline: as §1

persian speedwell [23] = assay: Test Example 4: herbicidal effect by soil treatment (Table 19, symbol R); format: in vivo, Persian speedwell (Veronica persica)
Outline: as §3

southern crabgrass [24] = assay: Test Example 5: herbicidal effect by foliage application, plastic box (Table 20, symbol F); format: in vivo, southern crabgrass (Digitaria ciliaris); conditions: foliage application
Outline: as §1

persian speedwell [25] = assay: Test Example 5: herbicidal effect by foliage application, plastic box (Table 20, symbol R); format: in vivo, Persian speedwell (Veronica persica); conditions: foliage application
Outline: as §1

Chinese sprangletop = assay: Test Example 3: herbicidal effect by foliage application, Wagner pot (Table 18, symbol D); format: in vivo, chinese sprangletop (Leptochloa chinensis)
Outline: as §4

Japanese bulrush = assay: Test Example 1: herbicidal activity, application before weed generation under submerged conditions (Table 16, symbol B); format: in vivo, Japanese bulrush (Schoenoplectus juncoides)
Outline: as §2

[26] = AAH 246 g/ha, three weeks after application
[27] = 269 g/ha, evaluated three weeks after application

C=Cc1ccc(-c2sc3ccccc3c2-c2c(OC(=O)CCC)c(C)nn(C)c2=O)cc1 [1-128]
L: windgrass, herbicidal effect (windgrass [1]; [26]): 4 (Herbicidal rate of 70% or more and less than 90%)
Herbicidal effect on C: oval-leafed pondweed (grade 0-5) (oval-leafed pondweed; 246 g/ha applied herbicide): 5 (Herbicidal rate of 90% or more (almost completely withered))
N: redroot pigweed, herbicidal effect rating (redroot pigweed [2]; AAH 246 g/ha): 4 (Herbicidal rate of 70% or more and less than 90%)
herbicidal effect on E (rice flat sedge), rating 0-5 (rice flat sedge; 246 g/ha): 3 (Herbicidal rate of 40% or more and less than 70%)
L: windgrass, herbicidal effect rating (windgrass [3]; AAH 246 g/ha): 0 (Herbicidal rate of 5% or less (almost no effect))
M: velvetleaf, herbicidal effect (velvetleaf [4]; [26]): 4 (Herbicidal rate of 70% or more and less than 90%)
K: Italian ryegrass, herbicidal effect rating (Italian ryegrass [5]; AAH 246 g/ha): 2 (Herbicidal rate of 20% or more and less than 40%)
H: barnyard grass, herbicidal effect rating (barnyard grass [6]; AAH 246 g/ha): 0 (Herbicidal rate of 5% or less (almost no effect))
F: southern crabgrass, herbicidal effect rating (southern crabgrass [7]; AAH 246 g/ha): 0 (Herbicidal rate of 5% or less (almost no effect))
N: redroot pigweed, herbicidal effect (redroot pigweed [8]; [26]): 5 (Herbicidal rate of 90% or more (almost completely withered))
P: chickweed, herbicidal effect (chickweed [9]; [26]): 5 (Herbicidal rate of 90% or more (almost completely withered))
G: green foxtail, herbicidal effect rating (green foxtail [10]; AAH 246 g/ha): 0 (Herbicidal rate of 5% or less (almost no effect))
I: wild oat, herbicidal effect rating (wild oat [11]; AAH 246 g/ha): 0 (Herbicidal rate of 5% or less (almost no effect))
O: lambsquarters, herbicidal effect rating (lambsquarters [12]; AAH 246 g/ha): 0 (Herbicidal rate of 5% or less (almost no effect))
M: velvetleaf, herbicidal effect rating (velvetleaf [13]; AAH 246 g/ha): 0 (Herbicidal rate of 5% or less (almost no effect))
G: green foxtail, herbicidal effect (green foxtail [14]; [26]): 0 (Herbicidal rate of 5% or less (almost no effect))
J: blackgrass, herbicidal effect (blackgrass [15]; [26]): 3 (Herbicidal rate of 40% or more and less than 70%)
herbicidal effect on H (barnyard grass), rating 0-5 (barnyard grass [16]; 246 g/ha): 4 (Herbicidal rate of 70% or more and less than 90%)
Herbicidal effect on A: late watergrass (grade 0-5) (late watergrass; 246 g/ha applied herbicide): 0 (Herbicidal rate of 5% or less (almost no effect))
H: barnyard grass, herbicidal effect (barnyard grass [17]; [26]): 1 (Herbicidal rate of 5% or more and less than 20%)
J: blackgrass, herbicidal effect rating (blackgrass [18]; AAH 246 g/ha): 0 (Herbicidal rate of 5% or less (almost no effect))
O: lambsquarters, herbicidal effect (lambsquarters [19]; [26]): 4 (Herbicidal rate of 70% or more and less than 90%)
P: chickweed, herbicidal effect rating (chickweed [20]; AAH 246 g/ha): 3 (Herbicidal rate of 40% or more and less than 70%)
I: wild oat, herbicidal effect (wild oat [21]; [26]): 1 (Herbicidal rate of 5% or more and less than 20%)
K: Italian ryegrass, herbicidal effect (Italian ryegrass [22]; [26]): 4 (Herbicidal rate of 70% or more and less than 90%)
R: persian speedwell, herbicidal effect rating (persian speedwell [23]; AAH 246 g/ha): 3 (Herbicidal rate of 40% or more and less than 70%)
F: southern crabgrass, herbicidal effect (southern crabgrass [24]; [26]): 0 (Herbicidal rate of 5% or less (almost no effect))
R: persian speedwell, herbicidal effect (persian speedwell [25]; [26]): 5 (Herbicidal rate of 90% or more (almost completely withered))
herbicidal effect on D (Chinese sprangletop), rating 0-5 (Chinese sprangletop; 246 g/ha): 5 (Herbicidal rate of 90% or more (almost completely withered))
Herbicidal effect on B: Japanese bulrush (grade 0-5) (Japanese bulrush; 246 g/ha applied herbicide): 5 (Herbicidal rate of 90% or more (almost completely withered))

COCCOCOc1c(C)nn(C)c(=O)c1-c1c(-c2ccc(OCCSC)cc2)sc2ccc(F)cc12 [2-059]
herbicidal effect on L: windgrass (windgrass [1]; [27]): 5 (Herbicidal rate of 90% or more (almost completely withered))
Herbicidal effect on C: oval-leafed pondweed (grade 0-5) (oval-leafed pondweed; 269 g/ha applied herbicide): 4 (Herbicidal rate of 70% or more and less than 90%)
herbicidal effect rating, N: redroot pigweed (redroot pigweed [2]; 269 g/ha): 5 (Herbicidal rate of 90% or more (almost completely withered))
herbicidal effect on E (rice flat sedge), rating 0-5 (rice flat sedge; 269 g/ha): 5 (Herbicidal rate of 90% or more (almost completely withered))
herbicidal effect rating, L: windgrass (windgrass [3]; 269 g/ha): 4 (Herbicidal rate of 70% or more and less than 90%)
herbicidal effect on M: velvetleaf (velvetleaf [4]; [27]): 5 (Herbicidal rate of 90% or more (almost completely withered))
herbicidal effect rating, K: Italian ryegrass (Italian ryegrass [5]; 269 g/ha): 4 (Herbicidal rate of 70% or more and less than 90%)
herbicidal effect rating, H: barnyard grass (barnyard grass [6]; 269 g/ha): 1 (Herbicidal rate of 5% or more and less than 20%)
herbicidal effect rating, F: southern crabgrass (southern crabgrass [7]; 269 g/ha): 4 (Herbicidal rate of 70% or more and less than 90%)
herbicidal effect on N: redroot pigweed (redroot pigweed [8]; [27]): 5 (Herbicidal rate of 90% or more (almost completely withered))
herbicidal effect on P: chickweed (chickweed [9]; [27]): 5 (Herbicidal rate of 90% or more (almost completely withered))
herbicidal effect rating, G: green foxtail (green foxtail [10]; 269 g/ha): 5 (Herbicidal rate of 90% or more (almost completely withered))
herbicidal effect rating, I: wild oat (wild oat [11]; 269 g/ha): 0 (Herbicidal rate of 5% or less (almost no effect))
herbicidal effect rating, O: lambsquarters (lambsquarters [12]; 269 g/ha): 5 (Herbicidal rate of 90% or more (almost completely withered))
herbicidal effect rating, M: velvetleaf (velvetleaf [13]; 269 g/ha): 1 (Herbicidal rate of 5% or more and less than 20%)
herbicidal effect on G: green foxtail (green foxtail [14]; [27]): 5 (Herbicidal rate of 90% or more (almost completely withered))
herbicidal effect on J: blackgrass (blackgrass [15]; [27]): 5 (Herbicidal rate of 90% or more (almost completely withered))
herbicidal effect on H (barnyard grass), rating 0-5 (barnyard grass [16]; 269 g/ha): 5 (Herbicidal rate of 90% or more (almost completely withered))
Herbicidal effect on A: late watergrass (grade 0-5) (late watergrass; 269 g/ha applied herbicide): 3 (Herbicidal rate of 40% or more and less than 70%)
herbicidal effect on H: barnyard grass (barnyard grass [17]; [27]): 5 (Herbicidal rate of 90% or more (almost completely withered))
herbicidal effect rating, J: blackgrass (blackgrass [18]; 269 g/ha): 0 (Herbicidal rate of 5% or less (almost no effect))
herbicidal effect on O: lambsquarters (lambsquarters [19]; [27]): 5 (Herbicidal rate of 90% or more (almost completely withered))
herbicidal effect rating, P: chickweed (chickweed [20]; 269 g/ha): 4 (Herbicidal rate of 70% or more and less than 90%)
herbicidal effect on I: wild oat (wild oat [21]; [27]): 4 (Herbicidal rate of 70% or more and less than 90%)
herbicidal effect on K: Italian ryegrass (Italian ryegrass [22]; [27]): 5 (Herbicidal rate of 90% or more (almost completely withered))
herbicidal effect rating, R: persian speedwell (persian speedwell [23]; 269 g/ha): 5 (Herbicidal rate of 90% or more (almost completely withered))
herbicidal effect on F: southern crabgrass (southern crabgrass [24]; [27]): 5 (Herbicidal rate of 90% or more (almost completely withered))
herbicidal effect on R: persian speedwell (persian speedwell [25]; [27]): 5 (Herbicidal rate of 90% or more (almost completely withered))
herbicidal effect on D (Chinese sprangletop), rating 0-5 (Chinese sprangletop; 269 g/ha): 5 (Herbicidal rate of 90% or more (almost completely withered))
Herbicidal effect on B: Japanese bulrush (grade 0-5) (Japanese bulrush; 269 g/ha applied herbicide): 3 (Herbicidal rate of 40% or more and less than 70%)
